# Results: paper PMC10866072, “Design, synthesis, molecular modelling and biological evaluation of novel 6-amino-5-cyano-2-thiopyrimidine derivatives as potent anticancer agents against leukemia and apoptotic inducers” (Journal of Enzyme Inhibition and Medicinal Chemistry, 2024)
# Key:
# CCRF-CEM = type: cell-based; conditions: one dose 10^-5 M, 48 h
# HL-60(TB) = type: cell-based; conditions: one dose 10^-5 M, 48 h
# K-562 = type: cell-based; conditions: one dose 10^-5 M, 48 h
# MOLT-4 = type: cell-based; conditions: one dose 10^-5 M, 48 h
# RPMI-8226 = type: cell-based; conditions: one dose 10^-5 M, 48 h
# SR = type: cell-based; conditions: one dose 10^-5 M, 48 h
# A549/ATCC = type: cell-based; conditions: one dose 10^-5 M, 48 h
# EKVX = type: cell-based; conditions: one dose 10^-5 M, 48 h
# HOP-62 = type: cell-based; conditions: one dose 10^-5 M, 48 h
# HOP-92 = type: cell-based; conditions: one dose 10^-5 M, 48 h
# NCI-H226 = type: cell-based; conditions: one dose 10^-5 M, 48 h
# NCI-H23 = type: cell-based; conditions: one dose 10^-5 M, 48 h
# NCI-H460 = type: cell-based; conditions: one dose 10^-5 M, 48 h
# NCI-H522 = type: cell-based; conditions: one dose 10^-5 M, 48 h
# HCC-2998 = type: cell-based; conditions: one dose 10^-5 M, 48 h
# HCT-116 = type: cell-based; conditions: one dose 10^-5 M, 48 h
# HCT-15 = type: cell-based; conditions: one dose 10^-5 M, 48 h
# HT29 = type: cell-based; conditions: one dose 10^-5 M, 48 h
# KM12 = type: cell-based; conditions: one dose 10^-5 M, 48 h
# SW-620 = type: cell-based; conditions: one dose 10^-5 M, 48 h
# SF-268 = type: cell-based; conditions: one dose 10^-5 M, 48 h
# SF-295 = type: cell-based; conditions: one dose 10^-5 M, 48 h
# SF-539 = type: cell-based; conditions: one dose 10^-5 M, 48 h
# SNB-19 = type: cell-based; conditions: one dose 10^-5 M, 48 h
# SNB-75 = type: cell-based; conditions: one dose 10^-5 M, 48 h
# U251 = type: cell-based; conditions: one dose 10^-5 M, 48 h
# LOX IMVI = type: cell-based; conditions: one dose 10^-5 M, 48 h
# MALME-3M = type: cell-based; conditions: one dose 10^-5 M, 48 h
# M14 = type: cell-based; conditions: one dose 10^-5 M, 48 h
# MDA-MB-435 = type: cell-based; conditions: one dose 10^-5 M, 48 h
# SK-MEL-2 = type: cell-based; conditions: one dose 10^-5 M, 48 h
# SK-MEL-28 = type: cell-based; conditions: one dose 10^-5 M, 48 h
# SK-MEL-5 = type: cell-based; conditions: one dose 10^-5 M, 48 h
# UACC-257 = type: cell-based; conditions: one dose 10^-5 M, 48 h
# UACC-62 = type: cell-based; conditions: one dose 10^-5 M, 48 h
# IGROV1 = type: cell-based; conditions: one dose 10^-5 M, 48 h
# OVCAR-3 = type: cell-based; conditions: one dose 10^-5 M, 48 h
# OVCAR-4 = type: cell-based; conditions: one dose 10^-5 M, 48 h
# OVCAR-5 = type: cell-based; conditions: one dose 10^-5 M, 48 h
# OVCAR-8 = type: cell-based; conditions: one dose 10^-5 M, 48 h
# SK-OV-3 = type: cell-based; conditions: one dose 10^-5 M, 48 h
# 786-0 = type: cell-based; conditions: one dose 10^-5 M, 48 h
# A498 = type: cell-based; conditions: one dose 10^-5 M, 48 h
# ACHN = type: cell-based; conditions: one dose 10^-5 M, 48 h
# CAKI-1 = type: cell-based; conditions: one dose 10^-5 M, 48 h
# RXF 393 = type: cell-based; conditions: one dose 10^-5 M, 48 h
# SN12C = type: cell-based, human; conditions: one dose 10^-5 M, 48 h
# TK-10 = type: cell-based; conditions: one dose 10^-5 M, 48 h
# UO-31 = type: cell-based; conditions: one dose 10^-5 M, 48 h
# PC-3 = type: cell-based; conditions: one dose 10^-5 M, 48 h
# DU-145 = type: cell-based; conditions: one dose 10^-5 M, 48 h
# MCF7 = type: cell-based; conditions: one dose 10^-5 M, 48 h
# MDA-MB-231/ATCC = type: cell-based; conditions: one dose 10^-5 M, 48 h
# HS 578T = type: cell-based; conditions: one dose 10^-5 M, 48 h; HS 578T
# T-47D = type: cell-based; conditions: one dose 10^-5 M, 48 h
# MDA-MB-468 = type: cell-based; conditions: one dose 10^-5 M, 48 h
# [1] = tested on: full NCI 60 cell lines panel; conditions: for activity on all 60 cancer cell lines tested (in words): one dose; for Mean % growth: one dose 10^-5 M, 48 h, mean over all cell lines
substance,measurement,setting,value
"3-Amino-4–(4-chlorophenyl)-1H-pyrazolo[3,4-d] pyrimidine-6-thiol [Compound 3b]",% growth,CCRF-CEM,92.49%
same,% growth,HL-60(TB),82.04%
same,% growth,K-562,94.65%
same,% growth,MOLT-4,92.74%
same,% growth,RPMI-8226,90.84%
same,% growth,SR,91.21%
same,% growth,A549/ATCC,100.87%
same,% growth,EKVX,96.85%
same,% growth,HOP-62,106.23%
same,% growth,HOP-92,100.46%
same,% growth,NCI-H226,107.48%
same,% growth,NCI-H23,103.30%
same,% growth,NCI-H460,107.05%
same,% growth,NCI-H522,84.30%
same,% growth,HCC-2998,100.20%
same,% growth,HCT-116,102.04%
same,% growth,HCT-15,103.06%
same,% growth,HT29,95.28%
same,% growth,KM12,100.80%
same,% growth,SW-620,102.78%
same,% growth,SF-268,103.53%
same,% growth,SF-295,89.90%
same,% growth,SF-539,98.83%
same,% growth,SNB-19,92.80%
same,% growth,SNB-75,94.54%
same,% growth,U251,101.98%
same,% growth,LOX IMVI,103.05%
same,% growth,MALME-3M,100.39%
same,% growth,M14,107.99%
same,% growth,MDA-MB-435,98.24%
same,% growth,SK-MEL-2,108.20%
same,% growth,SK-MEL-28,107.34%
same,% growth,SK-MEL-5,95.82%
same,% growth,UACC-257,106.44%
same,% growth,UACC-62,100.93%
same,% growth,IGROV1,96.70%
same,% growth,OVCAR-3,113.31%
same,% growth,OVCAR-4,98.54%
same,% growth,OVCAR-5,108.35%
same,% growth,OVCAR-8,104.96%
same,% growth,SK-OV-3,106.45%
same,% growth,786-0,99.34%
same,% growth,A498,109.21%
same,% growth,ACHN,102.63%
same,% growth,CAKI-1,93.47%
same,% growth,RXF 393,103.75%
same,% growth,SN12C,97.55%
same,% growth,TK-10,114.88%
same,% growth,UO-31,92.69%
same,% growth,PC-3,101.93%
same,% growth,DU-145,101.49%
same,% growth,MCF7,94.30%
same,% growth,MDA-MB-231/ATCC,98.65%
same,% growth,HS 578T,111.10%
same,% growth,T-47D,86.49%
same,% growth,MDA-MB-468,106.46%
same,activity on all 60 cancer cell lines tested (in words),[1],weak activity
same,Mean % growth,[1],100.23%
4-Amino-6–(4-chlorophenyl)-2-mercaptopyrimidine-5-carboximidohydrazide [Compound 2b],% growth,CCRF-CEM,100.09%
same,% growth,HL-60(TB),98.64%
same,% growth,K-562,98.62%
same,% growth,MOLT-4,99.19%
same,% growth,RPMI-8226,94.54%
same,% growth,SR,81.00%
same,% growth,A549/ATCC,110.21%
same,% growth,EKVX,100.22%
same,% growth,HOP-62,113.92%
same,% growth,HOP-92,107.66%
same,% growth,NCI-H226,121.25%
same,% growth,NCI-H23,107.36%
same,% growth,NCI-H460,107.93%
same,% growth,NCI-H522,98.92%
same,% growth,HCC-2998,105.50%
same,% growth,HCT-116,119.61%
same,% growth,HCT-15,103.81%
same,% growth,HT29,98.85%
same,% growth,KM12,100.03%
same,% growth,SW-620,103.87%
same,% growth,SF-268,108.46%
same,% growth,SF-295,93.17%
same,% growth,SF-539,103.32%
same,% growth,SNB-19,98.41%
same,% growth,SNB-75,99.29%
same,% growth,U251,105.90%
same,% growth,LOX IMVI,109.11%
same,% growth,MALME-3M,109.72%
same,% growth,M14,111.66%
same,% growth,MDA-MB-435,96.65%
same,% growth,SK-MEL-2,109.65%
same,% growth,SK-MEL-28,108.56%
same,% growth,SK-MEL-5,100.02%
same,% growth,UACC-257,114.55%
same,% growth,UACC-62,100.76%
same,% growth,IGROV1,103.95%
same,% growth,OVCAR-3,112.26%
same,% growth,OVCAR-4,103.90%
same,% growth,OVCAR-5,103.26%
same,% growth,OVCAR-8,110.09%
same,% growth,SK-OV-3,123.58%
same,% growth,786-0,99.27%
same,% growth,A498,116.23%
same,% growth,ACHN,102.02%
same,% growth,CAKI-1,99.31%
same,% growth,RXF 393,119.00%
same,% growth,SN12C,99.89%
same,% growth,TK-10,113.67%
same,% growth,UO-31,93.82%
same,% growth,PC-3,111.23%
same,% growth,DU-145,106.23%
same,% growth,MCF7,98.64%
same,% growth,MDA-MB-231/ATCC,100.62%
same,% growth,HS 578T,128.54%
same,% growth,T-47D,96.25%
same,% growth,MDA-MB-468,102.27%
same,activity on all 60 cancer cell lines tested (in words),[1],weak activity
same,Mean % growth,[1],105.07%
